How the values were obtained:
[1] = molecular target: T1, Phosphodiesterase 4 (Homo sapiens, UniProt P27815+Q08499+Q07343+Q08493); experiment: Inhibition of PDE4 from U937 monocytic cells; type: cell-based; details: u-937
[2] = species: Homo sapiens; experiment: Inhibition of LPS induced TNF-alpha production in human whole blood; type: functional; details: read-out: ID50 (the source's name)
[3] = species: Rattus norvegicus; experiment: (§1) Inhibition of gastric emptying in rats; type: functional, Stomach
[4] = test system: Cavia porcellus; experiment: Inhibition of SRS-A-mediated bronchoconstriction and airway microvascular leakage in sensitized guinea pigs […] 1 hr prio to challenge; type: functional; details: Lung, route oral, read-out: ID50 (the source's name)
[5] = test system: Rattus norvegicus; experiment: Inhibition of LPS-induced TNF-alpha production in rats 0.5 hr after oral dose; type: functional; details: for ED50: read-out: ID50 (the source's name)
[6] = species: Rattus norvegicus; experiment: as §1; type: functional; details: Stomach, read-out: ID50 (the source's name)
[7] = molecular target: T1, Phosphodiesterase 4; experiment: Inhibition of PDE4 (Phosphodiesterase 4) from U937 cells; type: cell-based; details: U-937, concentration not given here

Row | SMILES | IC50 [1] [nM] | ED50 [5] [mg/kg] | Inhibition [5] [%] | further results
1 | COc1ccc([C@]2(C#N)C[C@H]3C[C@@H](C(=O)O)C[C@H]3C2)cc1OC1Cc2ccccc2C1 | 1.3 | 1.7 | – | –
2 | COc1ccc([C@]2(C#N)C[C@H]3C[C@@H](C(=O)NO)C[C@H]3C2)cc1OC | 62 | – | 55 | –
3 | CCOc1cc([C@]2(C#N)C[C@H]3C[C@@H](C(=O)NO)C[C@H]3C2)ccc1OC | – | 1.8 | – | IC50 [2]: 800 nM; ED50 [6]: 12 mg/kg; ED50 [4]: 5 mg/kg; inhibition [7]: 56%
4 | COc1ccc([C@]2(C#N)C[C@H]3C[C@@H](C(=O)NO)C[C@H]3C2)cc1OC1Cc2ccccc2C1 | 0.85 | – | 17 | –
5 | COc1ccc([C@]2(C#N)CC[C@@H](C(=O)O)CC2)cc1OC1CCCC1 [CILOMILAST] | – | 1.7 | – | IC50 [2]: 18000 nM; ED50 [6]: 5.7 mg/kg; ED50 [4]: 4.5 mg/kg
6 | COc1ccc([C@]2(C#N)C[C@H]3C[C@@H](C(=O)O)C[C@H]3C2)cc1OC(C)C | 62 | – | 57 | –
7 | COc1ccc([C@]2(C#N)C[C@H]3C[C@@H](C(=O)NO)C[C@H]3C2)cc1OCC1CC1 | 29 | 3 | – | –
8 | COc1ccc([C@]2(C#N)C[C@H]3C[C@@H](C(=O)NO)C[C@H]3C2)cc1OC(C)C | 12 | – | 47 | –

The next lines start with results.

Row | IC50 [1] [nM] | SMILES | ED50 [5] [mg/kg] | Inhibition [5] [%] | further results
9 | > 300 | COc1ccc([C@@]2(C#N)C[C@H]3C[C@H](C(=O)O)C[C@H]3C2)cc1OC1CCCC1 | – | – | –
10 | 9 | COc1ccc([C@]2(C#N)C[C@H]3C[C@@H](C(=O)O)C[C@H]3C2)cc1OC1CCCC1 | 0.4 | – | IC50 [2]: 21000 nM; Inhibition [3]: 73%; ED50 [4]: 9.6 mg/kg
11 | 160 | COc1ccc([C@]2(C#N)C[C@H]3C[C@@H](C(=O)O)C[C@H]3C2)cc1OC | – | – | –
12 | 150 | COc1ccc([C@]2(C#N)C[C@H]3C[C@H](C(=O)O)C[C@H]3C2)cc1OC1CCCC1 | 3.8 | – | –
13 | 9.7 | COc1ccc([C@]2(C#N)C[C@H]3C[C@@H](C(=O)NO)C[C@H]3C2)cc1OC1CCCC1 | – | 52 | –
14 | 100 | COc1ccc([C@]2(C#N)C[C@H]3C[C@@H](C(=O)O)C[C@H]3C2)cc1OCC1CC1 | – | – | –
15 | > 300 | COc1ccc([C@@]2(C#N)C[C@H]3C[C@@H](C(=O)O)C[C@H]3C2)cc1OC1CCCC1 | – | – | –
16 | 26 | CCOc1cc([C@]2(C#N)C[C@H]3C[C@@H](C(=O)O)C[C@H]3C2)ccc1OC | 2.9 | – | IC50 [2]: 5800 nM; ED50 [6]: 17 mg/kg

Source: ChEMBL document CHEMBL1147610, “Orally active PDE4 inhibitors with therapeutic potential” (Bioorg Med Chem Lett, 2004)
